One data set has as its target T1, SIRT2 (Homo sapiens, UniProt Q8IXJ6).
T1 construct: recombinant active enzymes SIRT1, SIRT2, and the catalytically active fragment of SIRT3
T1 sequence (Q8IXJ6 1-389): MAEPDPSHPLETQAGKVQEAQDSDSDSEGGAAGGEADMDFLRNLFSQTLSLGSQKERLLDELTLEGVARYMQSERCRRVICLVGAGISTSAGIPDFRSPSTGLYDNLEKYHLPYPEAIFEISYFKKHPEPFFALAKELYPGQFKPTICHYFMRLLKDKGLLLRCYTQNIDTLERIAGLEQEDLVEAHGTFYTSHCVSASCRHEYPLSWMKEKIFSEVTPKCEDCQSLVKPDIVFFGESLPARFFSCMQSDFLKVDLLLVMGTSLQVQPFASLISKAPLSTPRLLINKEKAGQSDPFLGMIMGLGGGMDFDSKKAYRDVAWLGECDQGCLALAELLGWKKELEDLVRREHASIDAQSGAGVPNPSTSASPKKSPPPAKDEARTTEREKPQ
Briefly: Fluor-de-Lys biochemical sirtuin deacetylation assay, SIRT2. Conditions: 10 μM.

As a reminder, the inhibition is the drop in the measured response relative to a control, in per cent. The term melting point denotes the temperature, or range, at which the solid turns liquid. `CCN(c1ccc(OC)cc1)S(=O)(=O)c1cccc(C(=O)Nc2ccc(C#N)cc2)c1` [Compound 203Ba, N-(4-cyanophenyl)-3-(N-ethyl-N-(4-methoxyphenyl)sulfamoyl)benzamide] gave a melting point of 168 to 169 °C. The compound further came in with an inhibition at 10 µM against SIRT2 of 53%.
On the same counts, the results for `Cc1cc(Br)ccc1NC(=O)c1cccc(S(=O)(=O)N2CCCCCC2)c1` [Compound 203b, 3-(azepan-1-ylsulfonyl)-N-(4-bromo-2-methylphenyl)benzamide] are 177 to 179 °C and 0%.
On the same counts, the results for `CCCN(CCC)S(=O)(=O)c1cccc(C(=O)Nc2ccc(Br)cc2C)c1` [Compound 203c, N-(4-bromo-2-methylphenyl)-3-(N,N-dipropylsulfamoyl)benzamide] are 135 to 136 °C and 0%.
`CCCN(CCC)S(=O)(=O)c1cccc(C(=O)Nc2ccc(Br)cc2)c1` [Compound 203d, N-(4-bromophenyl)-3-(N,N-dipropylsulfamoyl)benzamide] showed a melting point of 160 to 162 °C. Besides, at SIRT2, at 10 µM the inhibition was 9%.
On the same counts, the results for `CCCN(CCC)S(=O)(=O)c1cccc(C(=O)Nc2cccc(Br)c2)c1` [Compound 203f, N-(3-bromophenyl)-3-(N,N-dipropylsulfamoyl)benzamide] are 105 to 107 °C and 60%.
For `CCCN(CCC)S(=O)(=O)c1cccc(C(=O)Nc2cccc([N+](=O)[O-])c2)c1` [Compound 203h, 3-(N,N-dipropylsulfamoyl)-N-(3-nitrophenyl)benzamide] the same measures were 126 to 128 °C and 50%.
In turn, `CC(=O)Nc1cccc(NC(=O)c2cccc(S(=O)(=O)N3CCCCCC3)c2)c1` [Compound 203k, N-(3-acetamidophenyl)-3-(azepan-1-ylsulfonyl)benzamide] yielded a melting point of 117 to 120 °C. The compound also came in with an inhibition at 10 µM on SIRT2 of 59%.
Compound `Cc1cc(Cl)ccc1N(C)C(=O)c1cccc(S(=O)(=O)N(C)c2ccc(Br)cc2)c1` [Compound 203l, 3-(N-(4-bromophenyl)-N-methylsulfamoyl)-N-(4-chloro-2-methylphenyl)-N-methylbenzamide] returned a melting point of 124 to 125 °C. For the same compound, on SIRT2, the inhibition at 10 µM was 25%.
On the same counts, the results for `Cc1cc(F)ccc1N(C)C(=O)c1cccc(S(=O)(=O)N(C)c2ccc(Br)cc2)c1` [Compound 203m, 3-(N-(4-bromophenyl)-N-methylsulfamoyl)-N-(4-fluoro-2-methylphenyl)-N-methylbenzamide] are 104 to 105 °C and 28%.
In turn, `Cc1cc(Cl)ccc1NC(=O)c1cccc(S(=O)(=O)N(C)c2ccc(Br)cc2)c1` [Compound 203n, 3-(N-(4-bromophenyl)-N-methylsulfamoyl)-N-(4-chloro-2-methylphenyl)benzamide] displayed a melting point of 163 to 164 °C. The inhibition at 10 µM against SIRT2 was found to be 18%.
On the same counts, the results for `Cc1cc(F)ccc1NC(=O)c1cccc(S(=O)(=O)N(C)c2ccc(Br)cc2)c1` [Compound 203o, 3-(N-(4-bromophenyl)-N-methylsulfamoyl)-N-(4-fluoro-2-methylphenyl)benzamide] are 163 to 165 °C and 14%.
On the same counts, the results for `CN(c1ccc(Br)cc1)S(=O)(=O)c1cccc(C(=O)Nc2ccc(Cl)cc2F)c1` [Compound 203q, 3-(N-(4-bromophenyl)-N-methylsulfamoyl)-N-(4-chloro-2-fluorophenyl)benzamide] are 117 to 118 °C and 29%.
`CN(c1ccc(Br)cc1)S(=O)(=O)c1cccc(C(=O)Nc2ccc(F)cc2F)c1` [Compound 203u, 3-(N-(4-bromophenyl)-N-methylsulfamoyl)-N-(2,4-difluorophenyl)benzamide] registered a melting point of 119 to 120 °C. This compound gave an inhibition at 10 µM on SIRT2 of 22%.
On to `CN(c1ccc(Cl)cc1)S(=O)(=O)c1cccc(C(=O)Nc2ccc(Br)cc2F)c1` [Compound 203w, N-(4-bromo-2-fluorophenyl)-3-(N-(4-chlorophenyl)-N-methylsulfamoyl)benzamide], for which the melting point was 126 to 127 °C. In addition, the inhibition at 10 µM at SIRT2 was 31%.
On the same counts, the results for `CN(c1ccc(Cl)cc1)S(=O)(=O)c1cccc(C(=O)Nc2ccc(Cl)cc2C#N)c1` [Compound 203x, N-(4-chloro-2-cyanophenyl)-3-(N-(4-chlorophenyl)-N-methylsulfamoyl)benzamide] are 157 to 158 °C and 15%.
On the same counts, the results for `CN(c1ccc(Cl)cc1)S(=O)(=O)c1cccc(NC(=O)c2ccc(Br)cc2)c1` [Compound 207a, 4-bromo-N-(3-(N-(4-chlorophenyl)-N-methylsulfamoyl)phenyl)benzamide] are 187 to 189 °C and 28%.
`CN(c1ccc(S(C)(=O)=O)cc1)S(=O)(=O)c1cccc(NC(=O)c2ccc(Br)cc2)c1` [Compound 207b, 4-bromo-N-(3-(N-methyl-N-(4-(methylsulfonyl)phenyl)sulfamoyl)phenyl)benzamide] returned a melting point of 216 to 218 °C. The inhibition at 10 µM against SIRT2 was determined as 57%.
For `CN(c1ccc(S(C)(=O)=O)cc1)S(=O)(=O)c1cccc(NC(=O)c2ccc([S+](C)[O-])cc2)c1` (stereo not shown) [Compound 207c, N-(3-(N-methyl-N-(4-(methylsulfonyl)phenyl)sulfamoyl)phenyl)-4-(methylsulfinyl)benzamide], the melting point is 184 to 186 °C. Further, testing at 10 µM against SIRT2 gave an inhibition of 47%.
For the compound `CN(c1ccc(S(C)(=O)=O)cc1)S(=O)(=O)c1cccc(NC(=O)c2ccc(S(C)(=O)=O)cc2)c1` [Compound 207d, N-(3-(N-methyl-N-(4-(methylsulfonyl)phenyl)sulfamoyl)phenyl)-4-(methylsulfonyl)benzamide], the melting point is 213 to 215 °C (dec.). At 10 µM the inhibition at SIRT2 was 26%.
For `CSc1ccc(CSc2cccc(C(=O)Nc3ccc(C#N)cn3)c2)cc1` [Compound 211a, N-(5-cyanopyridin-2-yl)-3-((4-(methylthio)benzyl)thio)benzamide] the same measures were 161 to 162 °C and 63%.
In the case of `CSc1ccc(CSc2cccc(C(=O)Nc3ccc(Cl)cn3)c2)cc1` [Compound 211b, N-(5-chloropyridin-2-yl)-3-((4-(methylthio)benzyl)thio)benzamide], the melting point is 159 to 161 °C. Moreover, the inhibition at 10 µM against SIRT2 was determined as 42%.
`COc1ccc(CSc2cccc(C(=O)Nc3ccc(C#N)cc3)c2)cc1` [Compound 211c, N-(4-cyanophenyl)-3-((4-methoxybenzyl)thio)benzamide] displayed a melting point of 167 to 169 °C. This compound displayed an inhibition at 10 µM against SIRT2 of 69%.
For the compound `COc1ccc(CSc2cccc(C(=O)Nc3ccc(C#N)cn3)c2)cc1` [Compound 211d, N-(5-cyanopyridin-2-yl)-3-((4-methoxybenzyl)thio)benzamide], the melting point fell in the range of 163 to 164 °C. Besides, the inhibition at 10 µM against SIRT2 was found to be 46%.
`N#Cc1ccc(NC(=O)c2ccnc(SCc3ccc(F)cc3)c2)cc1` [Compound 211e, N-(4-cyanophenyl)-2-((4-fluorobenzyl)thio)isonicotinamide]: the melting point was 160 to 162 °C. The compound further gave an inhibition at 10 µM on SIRT2 of 74%.
Turning to `COc1ccc(CSc2cc(C(=O)Nc3ccc(C#N)cc3)ccn2)cc1` [Compound 211f, N-(4-cyanophenyl)-2-((4-methoxybenzyl)thio)isonicotinamide], the melting point is 201 to 203 °C. Besides, at SIRT2, at 10 µM the inhibition was 68%.
On the same counts, the results for `N#Cc1ccc(NC(=O)c2cccc(SCc3ccc(F)cc3)c2)cc1` [Compound 211g, N-(4-cyanophenyl)-3-((4-fluorobenzyl)thio)benzamide] are 148 to 150 °C and 59%.
As to `N#Cc1ccc(NC(=O)c2cccc(OCc3cccc(F)c3F)c2)cc1` [Compound 216Aa, N-(4-cyanophenyl)-3-((2,3-difluorobenzyl)oxy)benzamide], the melting point was in the range of 149 to 150 °C. Further, on SIRT2, 10 µM produced 56% inhibition.
For `CC(=O)c1ccc(C(C)Oc2cncc(C(=O)Nc3ccc(C#N)cc3)c2)cc1` (stereo not shown) [Compound 216Ab, 5-(1-(4-acetylphenyl)ethoxy)-N-(4-cyanophenyl)nicotinamide] the same measures were 181 to 183 °C and 84%.
For `CC(=O)c1ccc(C(C)Oc2cccc(C(=O)Nc3ccc(C#N)cc3)c2)cc1` (stereo not shown) [Compound 216Ac, 3-(1-(4-acetylphenyl)ethoxy)-N-(4-cyanophenyl)benzamide] the same measures were 79 to 81 °C and 93%.
`N#Cc1ccc(NC(=O)c2cccc(OCc3cccc(F)c3)c2)cc1` [Compound 216Ad, N-(4-cyanophenyl)-3-((3-fluorobenzyl)oxy)benzamide] returned a melting point of 142 to 143 °C. Testing at 10 µM against SIRT2 gave an inhibition of 58%.
For `N#Cc1ccc(NC(=O)c2cccc(OCc3cc(F)cc(F)c3)c2)cc1` [Compound 216Ae, N-(4-cyanophenyl)-3-((3,5-difluorobenzyl)oxy)benzamide] the same measures were 185 to 187 °C and 57%.
`CC(O)c1ccc(C(C)Oc2cncc(C(=O)Nc3ccc(C#N)cc3)c2)cc1` (stereo not shown) [Compound 216Af, N-(4-cyanophenyl)-5-(1-(4-(1-hydroxyethyl)phenyl)ethoxy)nicotinamide]: the melting point was 179 to 181 °C. Moreover, the inhibition at 10 µM at SIRT2 was determined as 12%.

Values taken from patent US9890117B2, “Benzamide compounds and related methods of use” (Northwestern University, priority 2012, dated 2018).
